Data taken from patent US5684034A, “1H-indole-3-acetamide sPLA2 inhibitors” (Eli Lilly and Company, priority 1995, dated 1997).
Like-named read-outs stand apart in the source and are kept apart here.

Molecular target: T1, recombinant human secreted phospholipase A2 (Homo sapiens, UniProt P14555)
T1 sequence (P14555 21-144): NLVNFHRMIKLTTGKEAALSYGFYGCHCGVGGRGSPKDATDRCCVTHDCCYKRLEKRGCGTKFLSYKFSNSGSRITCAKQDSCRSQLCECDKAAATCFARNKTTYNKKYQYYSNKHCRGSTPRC
Assay: Human secreted phospholipase A2 inhibition test (chromogenic assay, diheptanoyl thio-PC substrate)
Assay type: biochemical
Conditions: pH 7.5, 40° C., 30 minutes, 405 nm
Experimental: The following chromogenic assay procedure was used to identify and evaluate inhibitors of recombinant human secreted phospholipase A2. The assay described herein has been adapted for high volume screening using 96 well microtiter plates.
A measured volume of racetic dipheptanoyl thio PC supplied in chloroform at a concentration of 100 mg/ml is taken to dryness and redissolved in 10 millimolar TRITON X-100™ nonionic detergent aqueous solution. Reaction Buffer is added to the solution, then DTNB to give the Reaction Mixture.
The reaction mixture thus obtained contains 1 mM diheptanoly thio-PC substrate, 0.29 mm Triton X-100™ detergent, and 0.12 mm DTMB in a buffered aqueous solution at pH 7.5.
1. Add 0.2 ml reaction mixture to all wells;
2. Add 10 ul test compound (or solvent blank) to appropriate wells, mix 20 seconds:
3. Add 50 nanograms of sPLA2 (10 microliters) to appropriate wells;
4. incubate plate at 40° C. for 30 minutes;
All compounds were tested in triplicate. […] Each sample was titrated in triplicate and result values were averaged for plotting and calculation of IC50 values. […] Each IC50 value was determined three times.

[1] = read-out: Inhibition of human secreted PLA2 IC50 ± mean deviation (3-5 tests)
[2] = Inhibition of human secreted PLA2 IC50 ± mean deviation (3-5 tests)

In the case of `Cc1ccc2c(CC(N)=O)c(C)n(Cc3ccccc3)c2c1` [Example 1, 2,6-Dimethyl-1-(phenylmethyl)-1H-indole-3-acetamide], the IC50 [1] is reported as 1.33 ± 0.45 µM.

In the case of `Cc1c(CC(N)=O)c2cc(O)ccc2n1Cc1ccccc1` [Example 2, 5-Hydroxy-2-methyl-1-(phenylmethyl)-1H-indole-3-acetamide], the IC50 [2] is reported as 0.84 ± 0.38 µM.

`COc1ccc2c(c1)c(CC(N)=O)cn2Cc1ccccc1` [Example 3, 5-Methoxy-1-(phenylmethyl)-1H-indole-3-acetamide] was tested, and the IC50 [1] was 3.7 ± 2.82 µM.

Compound `COc1ccc2c(c1)c(CC(N)=O)c(C)n2Cc1c(Cl)cccc1Cl` [Example 6, 1-(2,6-Dichlorophenylmethyl)-5-methoxy-2-methyl-1H-indole-3-acetamide] has an IC50 [1] of 1.3 ± 0.29 µM.

Work on `COc1ccc2c(c1)c(CC(N)=O)c(C)n2Cc1ccc(OCc2ccccc2)cc1` [Example 7, 1-[(4-Benzyloxyphenyl)methyl]-5-methoxy-2-methyl-1H-indole-3-acetamide] yielded an IC50 [1] of 5.45 ± 1.62 µM.

`COc1ccc2c(c1)c(CC(N)=O)c(C)n2Cc1ccccn1` [Example 8, 5-Methoxy-2-methyl-1-[(2-pyridyl)methyl]-1H-indole-3-acetamide] gave an IC50 [1] of 21.4 ± 8.55 µM.

With `CCCc1c(CC(N)=O)c2cc(OC)ccc2n1Cc1ccccc1` [Example 10, 5-Methoxy-1-(phenylmethyl)-2-propyl-1H-indole-3-acetamide] the IC50 [1] was 38.1 ± 2.82 µM.

In the case of `COc1ccc2c(c1)c(CC(N)=O)c(Cl)n2Cc1ccccc1` [Example 11, 2-Chloro-5-methoxy-1-(phenylmethyl)-1H-indole-3-acetamide], the IC50 [1] is reported as 0.25 ± 0.03 µM.

In the case of `Cc1c(CC(N)=O)c2cc(OCc3ccccc3)ccc2n1Cc1ccccc1` [Example 13, 5-Benzyloxy-2-methyl-1-(phenylmethyl)-1H-indole-3-acetamide], the IC50 [1] is reported as 0.92 ± 0.24 µM.

Compound `CCCCCCCCCCn1c(C)c(CC(N)=O)c2cc(OC)ccc21` [Example 14, 1-Decyl-5-methoxy-2-methyl-1H-indole-3-acetamide] has an IC50 [1] of 8.48 ± 5.25 µM.

In the case of `Cc1c(CC(N)=O)c2cc(C(N)=O)ccc2n1Cc1ccccc1` [Example 15, 5-Aminocarbonyl-2-methyl-1-(phenylmethyl)-1H-indole-3-acetamide], the IC50 [1] is reported as 1.51 ± 0.58 µM.

`Cc1c(CC(N)=O)c2cc(N)ccc2n1Cc1ccccc1` [Example 17, 5-Amino-2-methyl-1-(phenylmethyl)-1H-indole-3-acetamide] was tested, and the IC50 [1] was 1.61 ± 0.44 µM.

`Cc1c(CC(N)=O)c2cc(OCC(=O)O)ccc2n1Cc1ccccc1` [Example 19, 2-[[3-(2-Amino-2-oxoethyl)-2-methyl-1-(phenylmethyl)-1H-indol-5-yl]oxy]acetic acid] gave an IC50 [2] of 1.16 ± 0.41 µM.

`COC(=O)CCOc1ccc2c(c1)c(CC(N)=O)c(C)n2Cc1ccccc1` [Example 20, 3-[[3-(2-Amino-2-oxoethyl)-2-methyl-1-(phenylmethyl)-1H-indol-5-yl]oxy]-propanic acid methyl ester] gave an IC50 [1] of 1.05 ± 0.11 µM.

`Cc1c(CC(N)=O)c2cc(OCCC(=O)O)ccc2n1Cc1ccccc1` [Example 21, 3-[[3-(2-Amino-2-oxoethyl)-2-methyl-1-(phenylmethyl)-1H-indol-5-yl]oxy]-propanic acid] was tested, and the IC50 [2] was 0.43 ± 0.23 µM.

For `NC(=O)Cc1c(Cl)n(Cc2ccccc2)c2ccc(OCCCC(=O)O)cc12` [Example 24, 4-[[3-(2-Amino-2-oxoethyl)-2-chloro-1-(phenylmethyl)-1H-indole-5-yl]oxy]butanoic acid], the IC50 [2] was 0.06 ± 0.02 µM.

`COC(=O)CCNc1ccc2c(c1)c(CC(N)=O)c(C)n2Cc1ccccc1` [Example 25, 3-[[3-(2-Amino-2-oxoethyl)-2-methyl-1-(phenylmethyl)-1H-indol-5-yl]amino]propanoic acid methyl ester] was tested, and the IC50 [1] was 3.34 ± 0.46 µM.

`COC(=O)CCN(CCC(=O)OC)c1ccc2c(c1)c(CC(N)=O)c(C)n2Cc1ccccc1` [Example 26, 3,3'-[[3-(2-Amino-2-oxoethyl)-2-methyl-1-(phenylmethyl)-1H-indol-5-yl]imino]bis[propanoic acid]dimethyl ester] showed an IC50 [1] of 2.49 µM.

In the case of `Cc1c(CC(N)=O)c2cc(NCCC(=O)O)ccc2n1Cc1ccccc1` [Example 27, 3-[[3-(2-Amino-2-oxoethyl)-2-methyl-1-(phenylmethyl)-1H-indol-5-yl]amino]propanoic acid], the IC50 [2] is reported as 3.3 ± 0.1 µM.

Work on `Cc1c(CC(N)=O)c2cc(NCCC(=O)NN)ccc2n1Cc1ccccc1` [Example 28, 3-[[3-(2-Amino-2-oxoethyl)-2-methyl-1-(phenylmethyl)-1H-indol-5-yl]amino]propanoic acid hydrazide] yielded an IC50 [1] of 1.55 ± 0.93 µM.

In the case of `COc1ccc2c(CC(N)=O)c(C)n(Cc3ccccc3)c2c1` [Example 29, 6-Methoxy-2-methyl-1-(phenylmethyl)-1H-indole-3-acetamide], the IC50 (unit printed um, read-out: Inhibition of human secreted PLA2 IC50 ± mean deviation (3-5 tests)) is reported as 1.23 ± 0.33 µM.

Work on `Cc1c(CC(N)=O)c2ccc(O)cc2n1Cc1ccccc1` [Example 30, 6-Hydroxy-2-methyl-1-(phenylmethyl)-1H-indole-3-acetamide] yielded an IC50 [1] of 3.61 ± 0.75 µM.

Compound `CCOC(=O)CCCOc1ccc2c(CC(N)=O)c(C)n(Cc3ccccc3)c2c1` [Example 31, 4-[[3-(2-Amino-2-oxoethyl)-2-methyl-1-(phenylmethyl)-1H-indol-6-yl]oxy]butanoic acid ethyl ester] has an IC50 [1] of 0.45 ± 0.08 µM.

In the case of `Cc1c(CC(N)=O)c2ccc(OCCCC(=O)O)cc2n1Cc1ccccc1` [Example 32, 4-[[3-(2-Amino-2-oxoethyl)-2-methyl-1-(phenylmethyl)-1H-indol-6-yl]oxy]butanoic acid], the IC50 [1] is reported as 12.2 ± 0.55 µM.

Compound `CCOC(=O)CCCCOc1ccc2c(CC(N)=O)c(C)n(Cc3ccccc3)c2c1` [Example 33, 5-[[3-(2-Amino-2-oxoethyl)-2-methyl-1-(phenylmethyl)-1H-indol-6-yl]oxy]pentanoic acid ethyl ester] has an IC50 [2] of 0.3 ± 0.12 µM.

For `Cc1c(CC(N)=O)c2ccc(OCCCCC(=O)O)cc2n1Cc1ccccc1` [Example 34, 5-[[3-(2-Amino-2-oxoethyl)-2-methyl-1-(phenylmethyl)-1H-indol-6-yl]oxy]pentanoic acid], the IC50 [1] was 7.96 ± 1.22 µM.

In the case of `COc1cccc2c1c(CC(N)=O)c(C)n2Cc1ccccc1` [Example 35, 4-Methoxy-2-methyl-1-(phenylmethyl)-1H-indole-3-acetamide], the IC50 [1] is reported as 2.36 ± 0.15 µM.

Work on `Cc1c(CC(N)=O)c2c(O)cccc2n1Cc1ccccc1` [Example 36, 4-Hydroxy-2-methyl-1-(phenylmethyl)-1H-indole-3-acetamide] yielded an IC50 [2] of 7.46 ± 1.66 µM.

`CCOC(=O)CCCOc1cccc2c1c(CC(N)=O)c(C)n2Cc1ccccc1` [Example 37, 4-[[3-(2-Amino-2-oxoethyl)-2-methyl-1-(phenylmethyl)-1H-indol-4-yl]oxy]butanoic acid ethyl ester] gave an IC50 [1] of 9.44 ± 1.44 µM.

With `COc1ccc2c(c1)c(CC(N)=O)c(Br)n2Cc1ccccc1` [Example 42, 2-Bromo-5-methoxy-1-(phenylmethyl)-1H-indole-3-acetamide] the IC50 [1] was 0.23 ± 0.06 µM.

`NC(=O)Cc1c(Br)n(Cc2ccccc2)c2ccc(OCCCC(=O)O)cc12` [Example 43, 4-[[3-(2-Amino-2-oxoethyl)-2-bromo-1-(phenylmethyl)-1H-indol-5-yl]oxy]butanoic acid] gave an IC50 [1] of 0.07 ± 0.03 µM.

For `CSc1c(CC(N)=O)c2cc(O)ccc2n1Cc1ccccc1` [Example 44, 5-Hydroxy-2-(methylthio)-1-(phenylmethyl)-1H-indole-3-acetamide], the IC50 (unit printed aM, read-out: Inhibition of human secreted PLA2 IC50 ± mean deviation (3-5 tests)) was 0.38 ± 0.14 µM.

`CCOC(=O)CCCOc1ccc2c(c1)c(CC(N)=O)c(SC)n2Cc1ccccc1` [Example 45, 4-[[3-(2-Amino-2-oxoethyl)-2-(methylthio)-1-(phenylmethyl)-1H-indol-5-yl]oxy]butanoic acid ethyl ester] showed an IC50 [1] of 1.55 ± 0.51 µM.

For `CSc1c(CC(N)=O)c2cc(OCCCC(=O)O)ccc2n1Cc1ccccc1` [Example 46, 4-[[3-(2-Amino-2-oxoethyl)-2-(methylthio)-1-(phenylmethyl)-1H-indol-5-yl]oxy]butanoic acid], the IC50 [2] was 0.16 ± 0.19 µM.

For `CSc1c(CC(N)=O)c2cc(OCCCC(N)=O)ccc2n1Cc1ccccc1` [Example 47, 5-(4-Amino-4-oxobutoxy)-2-(methylthio)-1-(phenylmethyl)-1H-indole-3-acetamide], the IC50 [2] was 0.09 ± 0.06 µM.

For `CCCCCCCCCCCCCCn1c(C)c(CC(N)=O)c2cc(OC)ccc21` [Example 48, 5-Methoxy-2-methyl-1-tetradecyl-1H-indole-3-acetamide], the IC50 [1] was over 100 µM.

`CCCCCCCCCCCCCCn1c(C)c(CC(N)=O)c2cc(OCCCC(=O)O)ccc21` [Example 49] was tested, and the IC50 [1] was 0.47 ± 0.05 µM.

`CCCCCCn1c(C)c(CC(N)=O)c2cc(OCCCC(=O)O)ccc21` [Example 50] showed an IC50 [1] of 2.47 ± 1.31 µM.

`CCCCCCCCn1c(C)c(CC(N)=O)c2cc(OC)ccc21` [Example 51, 5-Methoxy-2-methyl-1-octyl-1H-indole-3-acetamide] gave an IC50 [1] of 8.28 ± 4.33 µM.

`CCCCCCCCn1c(C)c(CC(N)=O)c2cc(OCCCC(=O)O)ccc21` [Example 52] was tested, and the IC50 [1] was 0.77 ± 0.27 µM.

`CCCCCCCCCCn1c(C)c(CC(N)=O)c2cc(OCCCC(=O)O)ccc21` [Example 53] was tested, and the IC50 [1] was 0.68 µM.

`Cc1c(CC(N)=O)c2cc(OCCCC(=O)O)ccc2n1CC1CCCCC1` [Example 54] was tested, and the IC50 [1] was 0.65 ± 0.15 µM.

`CCc1c(CC(N)=O)c2cc(O)ccc2n1Cc1ccccc1` [Example 56, 2-Ethyl-5-hydroxy-1-(phenylmethyl)-1H-indole-3-acetamide] gave an IC50 [1] of 0.34 ± 0.1 µM.
